Patent publication US6803046B2, “Sincalide formulations” (Bracco International B.V., priority 2002, dated 2004)

Columns and labels:
gallbladder = settings: patients pretreated before hepatobiliary imaging; typical; cited from earlier work
[1] = Metal ion oxidative effects on sincalide with/without DTPA (RP-HPLC); assay type: physicochemical; settings: analyzed within 8 hours
Procedure: Experiments were performed to determine whether these residues, as present in sincalide, were susceptible to oxidation by free metals. These experiments also examined the role of DTPA as a formulation excipient to chelate metals and thereby inhibit sincalide oxidation. FIGS. 2-4 show the three oxidized forms of sincalide containing either mono- or disulfoxides.
The experimental formulation (25 mL) solution with (+) and without (−) DTPA were individually spiked with nine metal ions, as summarized in Table 7.
Copper and manganese, in the absence of DTPA, have the greatest oxidative effect on the methionine residues of sincalide resulting in combined weight percentages of Met 3 and Met 6 monosulfoxides (vs sincalide) of 85.5 and 128.9, respectively. In addition to the presence of sincalide Met 3 and Met 6 monosulfoxides (tR≈14.8 min. {doublet} and tR≈18 min.), formation of sincalide disulfoxide (tR≈6.5 min.) was also noted in the cases of copper and manganese, but not with the other metals.

combined percentages of Met 3 and Met 6 monosulfoxides (vs sincalide) ([1]; experimental formulation without DTPA spiked with copper (0.63 mM Cu2+)): 85.5%
combined percentages of Met 3 and Met 6 monosulfoxides (vs sincalide) ([1]; experimental formulation without DTPA spiked with manganese (0.18 mM Mn2+)): 128.9%
Structure (SMILES): CSCC[C@H](NC(=O)[C@H](Cc1ccc(OS(=O)(=O)O)cc1)NC(=O)[C@@H](N)CC(=O)O)C(=O)NCC(=O)N[C@@H](Cc1c[nH]c2ccccc12)C(=O)N[C@@H](CCSC)C(=O)N[C@@H](CC(=O)O)C(=O)N[C@@H](Cc1ccccc1)C(N)=O [Sincalide, 1-De(5-oxo-L-glutamine-5-L-proline)-2-de-L-methioninecaerulein]
time to gallbladder contraction after sincalide injection (gallbladder): ≤ 15 min
